Marks after values point to notes of the source that are not given here.
System: hypoxia-induced retinopathy zebrafish model
Assay: hypoxia-induced retinopathy zebrafish model (cobalt chloride induced)
Assay type: in vivo
Conditions: for Blood vessel diameter (mean ± SE): cobalt chloride co-treatment for 4 days, n=10; for Recovery rate (%): blood vessel diameter recovery
Method: We measured the therapeutic efficacy of entacapone and representative entacapone derivatives in hypoxia-induced retinopathy zebrafish model (Cao et al., Hypoxia-induced retinopathy model in adult zebrafish. Nat Protoc 2010, 5 (12), 1903-10).
We measured the therapeutic effect of entacapone and several representative entacapone derivatives on hypoxia-induced retinopathy zebrafish model. The transgenic Tg (flila:EGFP) zebrafish were treated with cobalt chloride for 4 days to induce retinopathy. […] As positive control, zebrafish were treated with cobalt chloride and 100 μL/mL eye-drops augentropfen stulln mono containing 0.3 μg/mL digitalin and 2 μg/mL esculin.

[1] = 10 μM as printed in text, 4 days

CCN(CC)C(=O)/C(C#N)=C/c1cc(O)c(O)c([N+](=O)[O-])c1 [Entacapone, (2E)-2-cyano-3-(3,4-dihydroxy-5-nitrophenyl)-N,N-diethylprop-2-enamide]
Blood vessel diameter (mean ± SE) (5 μM): 19.33 ± 0.52 pixel | Blood vessel diameter (mean ± SE) (5 μM, listed as entacapone): 19.33 pixel | blood vessel diameter recovery rate [1]: 94% | retinal blood diameter [1]: 17.39 | Blood vessel diameter (mean ± SE) (15 μM): 17.39 ± 0.49 pixel | Blood vessel diameter (mean ± SE) (50 μM): 17.47 ± 0.29 pixel | Blood vessel diameter (mean ± SE) (50 μM, listed as entacapone): 17.47 pixel | eye ball volume (in words) (after treatment, compared with model group): larger | Recovery rate (%) (5 μM, 4 days): 58*** % | Recovery rate (%) (5 μM, 4 days, listed as entacapone): 58% | Recovery rate (%) (15 μM, 4 days): 94*** % | Recovery rate (%) (50 μM, 4 days): 93*** % | Recovery rate (%) (50 μM, 4 days, listed as entacapone): 93% | retinal angiogenesis and retina structure (in words) (compared with model group): suppress hypoxia-induced retinal neoangiogenesis and improve histopathology of retinopathy | inner plexiform layer and outer plexiform layer thickness (in words) (treated groups compared with model group): thicker
